For four compounds, IC50, EC50 and AC50 results are on record in ChEMBL document CHEMBL1201862, “PubChem BioAssay data set” (2004).

Calls of active or inactive are those of the source.

The target of test [1] is T1, Sentrin-specific protease 6 (Homo sapiens, UniProt Q9GZR1).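 Further: Luminescence-based dose-response confirmatory assay of SENP6 inhibition, following up an ultra-high-throughput screen.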
T1 sequence (Q9GZR1 whole entry): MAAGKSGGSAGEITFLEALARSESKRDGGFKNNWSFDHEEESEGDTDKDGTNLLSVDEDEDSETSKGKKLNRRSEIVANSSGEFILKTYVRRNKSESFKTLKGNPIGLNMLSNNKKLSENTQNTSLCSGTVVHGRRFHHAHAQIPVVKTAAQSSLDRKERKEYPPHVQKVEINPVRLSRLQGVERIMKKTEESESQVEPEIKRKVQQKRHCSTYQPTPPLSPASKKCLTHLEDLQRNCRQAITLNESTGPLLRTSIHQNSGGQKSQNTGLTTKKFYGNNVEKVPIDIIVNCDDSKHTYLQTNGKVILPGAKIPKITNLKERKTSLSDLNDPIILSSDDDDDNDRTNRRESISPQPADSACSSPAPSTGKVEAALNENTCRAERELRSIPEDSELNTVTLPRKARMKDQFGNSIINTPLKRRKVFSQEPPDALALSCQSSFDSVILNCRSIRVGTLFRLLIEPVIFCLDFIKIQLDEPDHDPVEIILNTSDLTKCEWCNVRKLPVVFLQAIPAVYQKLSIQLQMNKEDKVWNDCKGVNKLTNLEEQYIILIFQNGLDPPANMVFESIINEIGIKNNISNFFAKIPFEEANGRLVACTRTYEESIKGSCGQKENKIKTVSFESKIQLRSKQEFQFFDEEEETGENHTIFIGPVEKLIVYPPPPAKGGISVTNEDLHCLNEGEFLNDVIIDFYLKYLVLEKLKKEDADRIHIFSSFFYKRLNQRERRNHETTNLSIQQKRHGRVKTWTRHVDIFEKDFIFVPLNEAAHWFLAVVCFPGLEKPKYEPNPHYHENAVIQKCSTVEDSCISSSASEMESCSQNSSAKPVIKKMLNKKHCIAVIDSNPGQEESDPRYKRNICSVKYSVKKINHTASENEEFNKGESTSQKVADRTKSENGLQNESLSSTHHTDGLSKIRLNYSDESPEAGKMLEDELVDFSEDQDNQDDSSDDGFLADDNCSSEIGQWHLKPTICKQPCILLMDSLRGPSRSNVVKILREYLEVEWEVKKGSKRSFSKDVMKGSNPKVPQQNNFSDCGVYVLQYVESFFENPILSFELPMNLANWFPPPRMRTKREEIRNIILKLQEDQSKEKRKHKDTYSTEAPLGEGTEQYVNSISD
It is filed as functional.

Test [2] deals with T2, Sentrin-specific protease 7 (Homo sapiens, UniProt Q9BQF6).
T2 sequence (Q9BQF6 whole entry): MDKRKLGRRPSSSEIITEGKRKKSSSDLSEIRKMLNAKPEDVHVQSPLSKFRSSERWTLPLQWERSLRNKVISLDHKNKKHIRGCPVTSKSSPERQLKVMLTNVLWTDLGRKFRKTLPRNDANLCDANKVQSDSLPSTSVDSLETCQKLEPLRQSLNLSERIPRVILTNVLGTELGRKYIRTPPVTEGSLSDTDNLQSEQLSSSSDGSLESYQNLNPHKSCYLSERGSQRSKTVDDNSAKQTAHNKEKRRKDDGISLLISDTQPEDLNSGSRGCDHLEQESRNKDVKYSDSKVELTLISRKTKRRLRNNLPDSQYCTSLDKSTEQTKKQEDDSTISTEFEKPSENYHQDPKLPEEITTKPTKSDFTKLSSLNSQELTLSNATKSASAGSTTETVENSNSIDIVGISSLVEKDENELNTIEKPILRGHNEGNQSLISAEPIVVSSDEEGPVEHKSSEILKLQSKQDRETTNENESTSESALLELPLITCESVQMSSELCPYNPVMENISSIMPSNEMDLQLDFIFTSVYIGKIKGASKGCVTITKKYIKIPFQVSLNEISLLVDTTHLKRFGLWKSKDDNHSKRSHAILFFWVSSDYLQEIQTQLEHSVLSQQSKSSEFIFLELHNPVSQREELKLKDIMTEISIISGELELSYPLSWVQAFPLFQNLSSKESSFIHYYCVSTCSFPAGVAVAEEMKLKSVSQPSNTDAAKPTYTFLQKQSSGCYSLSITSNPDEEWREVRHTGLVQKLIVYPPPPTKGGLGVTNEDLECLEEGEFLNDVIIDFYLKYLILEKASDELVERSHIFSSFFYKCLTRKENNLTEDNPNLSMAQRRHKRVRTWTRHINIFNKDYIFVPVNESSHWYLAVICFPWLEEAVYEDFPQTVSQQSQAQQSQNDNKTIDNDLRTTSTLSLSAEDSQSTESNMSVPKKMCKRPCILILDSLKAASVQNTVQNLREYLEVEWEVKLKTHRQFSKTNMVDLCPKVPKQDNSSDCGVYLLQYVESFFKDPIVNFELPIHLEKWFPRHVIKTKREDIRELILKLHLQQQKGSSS
It is filed as functional.

The target of a further test is T3, Caspase-3 (Homo sapiens, UniProt P42574).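 Further: Dose-response selectivity test against caspase-3 for candidate inhibitors of sentrin-specific proteases (SENPs).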
T3 sequence (P42574 whole entry): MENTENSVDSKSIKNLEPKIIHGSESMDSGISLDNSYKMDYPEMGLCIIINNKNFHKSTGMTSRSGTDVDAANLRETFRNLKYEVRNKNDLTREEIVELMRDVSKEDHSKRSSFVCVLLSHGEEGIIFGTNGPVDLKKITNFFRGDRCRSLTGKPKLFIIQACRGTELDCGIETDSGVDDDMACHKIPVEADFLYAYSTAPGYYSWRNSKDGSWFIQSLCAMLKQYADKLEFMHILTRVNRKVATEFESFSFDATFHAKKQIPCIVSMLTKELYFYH
It is filed as functional.

Test [3] addresses T4, Sentrin-specific protease 8 (Homo sapiens, UniProt Q96LD8).
T4 sequence (Q96LD8 whole entry): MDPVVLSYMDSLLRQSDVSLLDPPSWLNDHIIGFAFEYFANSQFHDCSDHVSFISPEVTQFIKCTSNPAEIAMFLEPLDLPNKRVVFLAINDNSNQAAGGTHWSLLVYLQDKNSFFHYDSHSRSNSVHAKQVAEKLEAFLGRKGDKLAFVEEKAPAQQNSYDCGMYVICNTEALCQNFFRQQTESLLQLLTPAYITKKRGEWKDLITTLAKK
It is filed as functional.

The target in test [4] is T5, Heat shock factor protein 1 (Mus musculus, UniProt P38532).
T5 sequence (P38532 whole entry): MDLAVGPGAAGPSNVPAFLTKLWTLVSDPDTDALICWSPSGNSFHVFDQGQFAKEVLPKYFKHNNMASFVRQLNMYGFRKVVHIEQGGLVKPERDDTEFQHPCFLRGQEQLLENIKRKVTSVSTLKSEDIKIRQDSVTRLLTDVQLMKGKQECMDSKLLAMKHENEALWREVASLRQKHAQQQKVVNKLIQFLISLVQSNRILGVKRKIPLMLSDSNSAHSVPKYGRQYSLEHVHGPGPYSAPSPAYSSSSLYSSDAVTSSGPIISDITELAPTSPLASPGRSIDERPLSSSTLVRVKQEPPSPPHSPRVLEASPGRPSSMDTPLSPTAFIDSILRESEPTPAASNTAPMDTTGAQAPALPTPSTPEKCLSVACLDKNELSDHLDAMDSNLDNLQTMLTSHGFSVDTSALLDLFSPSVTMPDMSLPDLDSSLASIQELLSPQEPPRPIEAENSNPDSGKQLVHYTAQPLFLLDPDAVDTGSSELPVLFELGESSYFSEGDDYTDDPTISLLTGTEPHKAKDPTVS
Kind of test: enhancement of HSF1-driven luciferase signal – cell-based, NIH3T3, luminescence, dose retest, confirmation (AID 435004).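 Further: stress induced by proteasome inhibitor MG132 added 30 min after compound; luciferase reporter driven by HSF1 response element in NIH3T3 cells; actives raise luminescence as potentiators of the MG132 stress response.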 In kind it is functional.

The target of test [5] is T6, Fatty acid synthase (Homo sapiens, UniProt P49327). Briefly: inhibition of human FAS-TE enzyme activity – biochemical, kinetic fluorescence intensity, dose response (AID 624326).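 Further: rate of fluorescence rise from hydrolysis of a fluorogenic O-methyl fluorescein ester substrate.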 It is filed as functional.
T6 sequence (P49327 whole entry): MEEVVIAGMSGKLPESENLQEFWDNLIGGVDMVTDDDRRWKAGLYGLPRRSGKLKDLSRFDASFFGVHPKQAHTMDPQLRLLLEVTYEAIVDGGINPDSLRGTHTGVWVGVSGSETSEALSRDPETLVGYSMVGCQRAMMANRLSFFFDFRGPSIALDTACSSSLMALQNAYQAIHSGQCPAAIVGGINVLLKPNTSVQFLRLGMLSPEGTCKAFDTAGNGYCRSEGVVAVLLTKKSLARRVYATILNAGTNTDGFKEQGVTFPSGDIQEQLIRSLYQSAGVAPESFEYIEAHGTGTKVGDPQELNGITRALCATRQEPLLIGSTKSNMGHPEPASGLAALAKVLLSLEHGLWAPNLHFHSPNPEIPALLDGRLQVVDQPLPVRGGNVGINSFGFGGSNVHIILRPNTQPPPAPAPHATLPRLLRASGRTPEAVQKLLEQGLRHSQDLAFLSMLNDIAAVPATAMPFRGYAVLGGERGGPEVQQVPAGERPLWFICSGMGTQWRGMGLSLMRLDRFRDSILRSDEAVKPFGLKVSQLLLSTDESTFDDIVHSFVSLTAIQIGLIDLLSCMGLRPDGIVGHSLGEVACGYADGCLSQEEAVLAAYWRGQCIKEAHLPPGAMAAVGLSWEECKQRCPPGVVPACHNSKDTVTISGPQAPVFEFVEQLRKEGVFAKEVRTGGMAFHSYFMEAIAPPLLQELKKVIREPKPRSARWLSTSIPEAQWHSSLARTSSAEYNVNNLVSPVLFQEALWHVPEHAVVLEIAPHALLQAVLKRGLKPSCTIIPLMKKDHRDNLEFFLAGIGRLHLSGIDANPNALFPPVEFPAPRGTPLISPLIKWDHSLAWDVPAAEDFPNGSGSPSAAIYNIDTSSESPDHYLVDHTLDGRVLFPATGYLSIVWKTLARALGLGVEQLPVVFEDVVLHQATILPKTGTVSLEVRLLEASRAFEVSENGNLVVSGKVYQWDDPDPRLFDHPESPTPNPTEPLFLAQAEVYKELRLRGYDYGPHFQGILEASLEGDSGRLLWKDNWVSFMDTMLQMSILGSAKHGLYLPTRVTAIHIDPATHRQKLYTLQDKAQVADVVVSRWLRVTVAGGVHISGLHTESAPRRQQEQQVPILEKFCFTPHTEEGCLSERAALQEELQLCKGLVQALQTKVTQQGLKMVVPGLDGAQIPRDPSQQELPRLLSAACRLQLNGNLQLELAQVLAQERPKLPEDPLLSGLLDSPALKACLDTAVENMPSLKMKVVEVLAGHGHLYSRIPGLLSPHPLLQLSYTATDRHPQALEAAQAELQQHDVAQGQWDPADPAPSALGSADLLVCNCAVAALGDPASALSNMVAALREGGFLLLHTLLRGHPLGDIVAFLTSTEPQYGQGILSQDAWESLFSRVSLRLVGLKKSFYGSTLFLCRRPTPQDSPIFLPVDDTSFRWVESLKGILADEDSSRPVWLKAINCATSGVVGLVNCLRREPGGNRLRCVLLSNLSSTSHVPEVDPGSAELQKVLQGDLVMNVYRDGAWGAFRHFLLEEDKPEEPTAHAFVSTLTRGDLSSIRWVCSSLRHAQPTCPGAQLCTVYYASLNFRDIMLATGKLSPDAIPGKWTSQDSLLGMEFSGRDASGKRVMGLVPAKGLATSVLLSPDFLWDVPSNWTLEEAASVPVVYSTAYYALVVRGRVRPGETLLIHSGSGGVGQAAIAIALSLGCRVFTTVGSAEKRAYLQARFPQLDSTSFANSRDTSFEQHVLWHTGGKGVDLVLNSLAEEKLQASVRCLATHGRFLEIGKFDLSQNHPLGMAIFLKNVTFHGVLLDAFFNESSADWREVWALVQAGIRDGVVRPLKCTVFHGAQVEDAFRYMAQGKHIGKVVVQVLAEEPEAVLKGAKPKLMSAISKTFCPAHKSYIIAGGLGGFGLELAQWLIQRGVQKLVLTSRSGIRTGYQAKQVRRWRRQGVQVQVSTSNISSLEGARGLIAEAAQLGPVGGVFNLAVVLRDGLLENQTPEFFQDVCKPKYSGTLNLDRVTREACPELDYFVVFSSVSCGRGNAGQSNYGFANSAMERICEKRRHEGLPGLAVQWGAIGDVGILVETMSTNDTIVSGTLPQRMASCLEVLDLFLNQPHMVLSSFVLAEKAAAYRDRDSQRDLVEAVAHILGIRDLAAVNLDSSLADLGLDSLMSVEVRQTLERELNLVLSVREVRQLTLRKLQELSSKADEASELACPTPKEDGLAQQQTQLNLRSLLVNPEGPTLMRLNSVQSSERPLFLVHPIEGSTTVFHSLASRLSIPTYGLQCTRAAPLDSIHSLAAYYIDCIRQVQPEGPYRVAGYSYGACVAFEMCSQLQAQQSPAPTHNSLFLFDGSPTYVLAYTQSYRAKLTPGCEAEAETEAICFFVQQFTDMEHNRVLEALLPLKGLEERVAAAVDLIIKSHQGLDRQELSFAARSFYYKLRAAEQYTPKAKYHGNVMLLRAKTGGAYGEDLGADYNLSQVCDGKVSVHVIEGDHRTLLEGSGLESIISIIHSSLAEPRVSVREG
Test [6] deals with T6, Fatty acid synthase. Briefly: inhibition of human FAS-TE enzyme activity – biochemical, endpoint fluorescence intensity, uHTS hits, dose response (AID 624327).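 Further: fluorescence from hydrolysis of an O-methyl fluorescein acyl ester substrate by the enzyme.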 It is filed as functional.
Test [7] in a line: Luminescence Cell-Based Dose Retest to Confirm Inhibitors of Cancer Stem Cells. [Related pubchem assays (depositor defined):AID2717, AID2721]. In kind it is functional. The following applies: Homo sapiens.
For test [8], the target named is T7, Rac GTPase-activating protein 1 (Homo sapiens, UniProt Q9H0H5).
T7 sequence (Q9H0H5 whole entry): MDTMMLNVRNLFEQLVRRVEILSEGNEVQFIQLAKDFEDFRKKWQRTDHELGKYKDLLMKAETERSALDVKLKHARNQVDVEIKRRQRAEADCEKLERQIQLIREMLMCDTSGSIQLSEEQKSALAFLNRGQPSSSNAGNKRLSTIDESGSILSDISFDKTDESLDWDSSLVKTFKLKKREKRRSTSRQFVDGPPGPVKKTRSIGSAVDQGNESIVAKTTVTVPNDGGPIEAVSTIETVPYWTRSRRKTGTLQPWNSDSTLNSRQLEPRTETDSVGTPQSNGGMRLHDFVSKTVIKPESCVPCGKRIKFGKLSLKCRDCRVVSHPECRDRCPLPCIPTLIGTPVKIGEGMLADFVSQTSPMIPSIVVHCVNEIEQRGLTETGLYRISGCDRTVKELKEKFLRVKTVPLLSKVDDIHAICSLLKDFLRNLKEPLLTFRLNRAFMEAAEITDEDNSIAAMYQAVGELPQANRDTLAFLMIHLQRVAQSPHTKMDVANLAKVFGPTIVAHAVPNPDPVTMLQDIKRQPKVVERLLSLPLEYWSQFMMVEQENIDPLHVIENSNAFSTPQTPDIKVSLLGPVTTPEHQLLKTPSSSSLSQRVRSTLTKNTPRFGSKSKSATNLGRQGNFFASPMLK
Kind of test: blockers of MgcRacGAP-driven Rac1 GTP hydrolysis – biochemical, ADP Hunter fluorescence, primary and confirmatory, confirmation (AID 624330). It is filed as functional.

In test [9] the target is T8, Corticotropin-releasing factor receptor 2/Corticotropin-releasing factor-binding protein (Homo sapiens, UniProt P24387+Q13324).
T8 sequence (Q13324 whole entry): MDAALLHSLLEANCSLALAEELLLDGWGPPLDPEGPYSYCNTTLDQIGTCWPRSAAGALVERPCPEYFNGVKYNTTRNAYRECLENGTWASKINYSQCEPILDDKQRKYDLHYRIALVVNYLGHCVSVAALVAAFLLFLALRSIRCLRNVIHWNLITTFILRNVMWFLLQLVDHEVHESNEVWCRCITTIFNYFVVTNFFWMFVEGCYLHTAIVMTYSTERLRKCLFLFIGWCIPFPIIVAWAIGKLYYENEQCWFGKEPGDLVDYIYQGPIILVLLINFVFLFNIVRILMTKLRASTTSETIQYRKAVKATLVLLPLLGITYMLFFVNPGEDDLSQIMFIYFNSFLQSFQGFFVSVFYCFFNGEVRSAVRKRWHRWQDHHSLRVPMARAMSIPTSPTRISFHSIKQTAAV
T8 sequence (P24387 whole entry): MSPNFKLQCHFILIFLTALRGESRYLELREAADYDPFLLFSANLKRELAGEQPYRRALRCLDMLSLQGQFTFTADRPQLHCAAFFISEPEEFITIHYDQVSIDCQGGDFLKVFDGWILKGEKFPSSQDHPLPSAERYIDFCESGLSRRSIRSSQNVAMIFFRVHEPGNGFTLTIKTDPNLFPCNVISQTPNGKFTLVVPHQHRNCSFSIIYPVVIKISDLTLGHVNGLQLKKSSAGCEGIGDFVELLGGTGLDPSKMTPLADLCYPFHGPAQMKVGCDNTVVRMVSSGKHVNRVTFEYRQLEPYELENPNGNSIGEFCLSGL
Kind of test: activators of CRF receptor 2 with binding protein – uHTS hits, confirmation (AID 602473). It is filed as functional. Conditions: read-out: EC50_Mean.

Test [10] deals with Escherichia coli. Kind of test: microbe, parasite or virus in culture.
Test [11] addresses T9, DNA repair protein RAD52 homolog (Homo sapiens, UniProt P43351).
T9 sequence (P43351 whole entry): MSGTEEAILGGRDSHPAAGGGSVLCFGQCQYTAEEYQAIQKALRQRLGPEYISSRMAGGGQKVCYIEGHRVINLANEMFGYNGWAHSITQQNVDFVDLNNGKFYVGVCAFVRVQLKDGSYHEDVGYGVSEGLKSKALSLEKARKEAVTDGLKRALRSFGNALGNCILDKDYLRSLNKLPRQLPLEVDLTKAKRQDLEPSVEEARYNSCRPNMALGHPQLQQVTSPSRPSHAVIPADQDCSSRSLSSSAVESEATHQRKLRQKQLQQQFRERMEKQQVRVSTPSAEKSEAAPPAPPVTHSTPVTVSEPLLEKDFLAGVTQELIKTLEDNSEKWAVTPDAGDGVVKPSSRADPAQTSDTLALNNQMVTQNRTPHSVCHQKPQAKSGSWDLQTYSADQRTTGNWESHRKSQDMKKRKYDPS
In kind it is functional, biochemical.

In test [12] the test system is Escherichia coli. Kind of test: microbe, parasite or virus in culture. This is another data set of the same source.
Test [13] concerns the target T8, Corticotropin-releasing factor receptor 2/Corticotropin-releasing factor-binding protein. Kind of test: Dose Response confirmation of uHTS hits for small molecule antagonists of the CRF-binding protein and CRF-R2 receptor complex. It is filed as functional. The following applies: read-out: IC50_Mean.

`O=C(O)c1ccc(-c2nc(O)c3c(-c4ccccc4)csc3n2)cc1`: the IC50 in test [1] was 56.1 µM (active); in test [2] it was 40.4 µM (active); at Caspase-3, > 100 µM (inactive); in [3] it was 61.6 µM (active).

For `COc1nc(C)ccc1-c1noc(-c2cccs2)n1`, the IC50 in test [1] is 32.7 µM (active); in test [2], 5.07 µM (active); on Caspase-3, 13 µM (active); in [3] it was 9.82 µM (active). Besides, the EC50 in [4] is > 260 µM (inactive).

For the compound `COc1ccc2nc(NC(=O)c3ccc([N+](=O)[O-])o3)sc2c1`, the IC50 in test [1] was 13.8 µM (active); on Fatty acid synthase [5] it was 8.39 µM (active); on Fatty acid synthase [6] it was 14.5 µM (active); in test [2], 4.54 µM (active); on Caspase-3, 28.2 µM (active); in test [3], 22.9 µM (active). Also, the AC50 in test [7] is 1.96 µM (active).

Take `NCC[C@H](O)C(=O)N[C@@H]1C[C@H](N)[C@@H](O[C@H]2O[C@H](CN)[C@@H](O)[C@H](O)[C@H]2O)[C@H](O)[C@H]1O[C@H]1O[C@H](CO)[C@@H](O)[C@H](N)[C@H]1O`: the IC50 is 113 µM (active) in test [8] and > 47.1 µM (inactive) in test [13]. Besides, in test [9], the EC50 was > 53 µM (inactive). Besides, the half-maximal activity concentration (AC50) was 14.9 µM (active) with Escherichia coli [10], 5.91 µM (active) in test [11] and 4.69 µM (active) with Escherichia coli [12].
